Measured values taken from US20140329858A1, “Cyclic Urea Derivatives As Androgen Receptor Antagonists” (priority 2011, published 2014).

What follows are compounds tested on Vcap cells (assay: Dihydrotestosterone (DHT) mediated XTT cell proliferation assay for screening AR antagonists using Vcap cells). Settings: 0.2 nM DHT, effect reached at high conc.
Assay type: cell-based
Experimental: Dihydrotestosterone (DHT) Mediated XTT Cell Proliferation Assay for Screening AR Antagonists Using Vcap cells
The Vcap cells (4×10^6 cells) were seeded in a T-75 flask containing DMEM with 15% FBS. After 72 hours, the media was removed; the cells were washed once and replaced with phenol red free DMEM containing 8% charcoal stripped serum. Then, the cells were starved in phenol red free DMEM with 8% charcoal stripped serum for 5 days. Following the starvation, the cells were harvested and seeded in 96 well plates (10×10^3 cells per well) in phenol red free DMEM with 8% charcoal stripped serum (Day 0). The cells were allowed to settle and on Day 4 they were treated with different concentrations of the compound (30 μM, 10 μM, 1 μM, 500 nM, 100 nM, 10 nM, 1 nM, 0.1 nM) in the presence of 0.2 nM DHT. DHT alone and a DMSO controls were also included. All treatments were done in triplicate. The drugs were replenished on Day 7 and the cells were allowed to grow for another 72 hours. On Day 10, the experiment was terminated by adding the XTT reagent (2,3-bis[2-methoxy-4-notro-5-sulfophenyl]-2H-tetrazolium-5-caboxyanilide inner salt) dissolved in Phenol red free DMEM without serum. The cells with the XTT reagents were incubated inside the CO2 incubator for 3-4 hours for color development; after which the readings were taken at […] using a spectramax Gemini plate reader.
Data fitting: The IC50 curves for the 8 compound concentrations were calculated with GraphPad Prism software using the sigmoidal dose-response function. (Graphpad Software, San Diego, Calif., USA).
CNC(=O)c1ccc(N2C(=O)N(c3ccc(C#N)c(C(F)(F)F)c3)[C@@H]3CCCC[C@H]32)cn1 (racemic) [Example 53, Trans-5-(3-(4-cyano-3-(trifluoromethyl)phenyl)-2-oxooctahydro-1H-benzo[d]imidazol-1-yl)-N-methylpicolinamide (±)] was tested, and the “XTT: only 65% @ high conc” value was 65%.

Same assay, conditions: Homo sapiens, 240 h, in the presence of 0.2 nM DHT, XTT readout on Day 10, IC50 curves from 8 concentrations
With CNC(=O)c1ccc(N2C(=O)N(c3ccc(C#N)c(C(F)(F)F)c3)[C@H]3C=CCC[C@@H]32)cc1F (racemic) [Example 86, trans-4-(3-(4-cyano-3-(trifluoromethyl)phenyl)-2-oxo-2,3,3a,6,7,7a-hexahydro-1H-benzo[c]imidazol-1-yl)-2-fluoro-N-methylbenzamide (±)] the IC50 was 0.043 µM. Work on CNC(=O)c1ccc(N2C(=O)N(c3ccc(C#N)c(C(F)(F)F)c3)[C@@H]3CCCC[C@H]32)cn1 (racemic) [Example 53, Trans-5-(3-(4-cyano-3-(trifluoromethyl)phenyl)-2-oxooctahydro-1H-benzo[d]imidazol-1-yl)-N-methylpicolinamide (±)] yielded an IC50 of 0.165 µM. CN1C(=O)N(c2ccc(C#N)c(C(F)(F)F)c2)[C@@H]2CCC(c3ccccc3)=C[C@H]21 (racemic) [Example 91, Trans-4-3-methyl-2-oxo-5-phenyl-2,3,3a,6,7,7a-hexahydro-1H-benzo[d]imidazol-1-yl)-2-(trifluoromethyl)benzonitrile (±)] was tested, and the IC50 was 0.323 µM. Work on CNC(=O)c1ccc(C2=C[C@@H]3[C@@H](CC2)N(c2ccc(C#N)c(C(F)(F)F)c2)C(=O)N3C)cc1F (racemic) [Example 88, Trans-4-(1-(4-cyano-3-(trifluoromethyl)phenyl)-3-methyl-2-oxo-2,3,3a,6,7,7a-hexahydro-1H-benzo[d]imidazol-5-yl)-2-fluoro-N-methylbenzamide (±)] yielded an IC50 of 0.218 µM. CNC(=O)c1ccc(N2C(=O)N(c3ccc(C#N)c(C(F)(F)F)c3)[C@@H]3CCC(=O)C[C@H]32)cc1F (racemic) [Example 81, Trans-4-(3-(4-cyano-3-(trifluoromethyl)phenyl)-2,6-dioxooctahydro-1H-benzo[d]imidazol-1-yl)-2-fluoro-N-methylbenzamide (±)] showed an IC50 of 0.703 µM. Cc1cc(N2C(=O)N(c3ccc(C#N)c(C(F)(F)F)c3)[C@H]3COCC[C@@H]32)ccc1C(N)=O (racemic) [Example 79, Trans-4-(3-(4-cyano-3-(trifluoromethyl)phenyl)-2-oxohexahydropyrano[3,4-c]imidazol-1(6H)-yl)-2-methylbenzamide (±)] was tested, and the IC50 was 4.33 µM. N#Cc1ccc(N2C(=O)N(c3ccc4c(c3)CCO4)[C@H]3CCCC[C@@H]32)cc1C(F)(F)F [Example 58, 4-((3aS,7aS)-3-(2,3-dihydrobenzofuran-5-yl)-2-oxooctahydro-1H-benzo[d]imidazol-1-yl)-2-(trifluoromethyl)benzonitrile] was tested, and the IC50 was 0.547 µM. With N#Cc1ccc(N2C(=O)N(c3ccc(C(=O)NOCC4CCCO4)c(F)c3)[C@@H]3CCCC[C@H]32)cc1C(F)(F)F (mixture of isomers) [Example 27, Trans 4-(3-(4-cyano-3-(trifluoromethyl)phenyl)-2-oxooctahydro-1H-benzo[c]im-idazol-1-yl)-2-fluoro-N-((tetrahydrofuran-2-yl)methoxy)benzamide (±)] the IC50 was 0.196 µM. With CC(=O)Nc1ccc(N2C(=O)N(c3ccc(C#N)c(C(F)(F)F)c3)[C@@H]3CCCC[C@H]32)cc1F (racemic) [Example 12] the IC50 was 0.533 µM. N#Cc1ccc(N2C(=O)N(c3cccc(S(N)(=O)=O)n3)[C@@H]3CCCC[C@H]32)cc1C(F)(F)F (racemic) [Example 9, Trans-6-(3-(4-cyano-3-(trifluoromethyl)phenyl)-2-oxooctahydro-1H-benzo[c]imidazol-1-yl) pyridine-2-sulfonamide (±)] showed an IC50 greater than 10 µM. Compound N#Cc1ccc(N2C(=O)N(c3ccc(N)c(F)c3)[C@@H]3CCCC[C@H]32)cc1C(F)(F)F (racemic) [Example 15, Trans-(4-(-3-(4-amino-3-fluorophenyl)-2-oxooctahydro-1H-benzo[d]imidazol-1-yl)-2-(trifluoromethyl)benzonitrile (±)] has an IC50 of 0.823 µM. N#Cc1ccc(N2C(=O)N(Cc3ccc(-n4ccnc4)nc3)[C@@H]3CCCC[C@H]32)cc1C(F)(F)F (racemic) [Example 49, Trans-4-(34(6-(1H-imidazol-1-yl)pyridin-3-yl)methyl)-2-oxooctahydro-1H-benzo[d]imidazol-1-yl)-2-(trifluoromethyl)benzonitrile (±)] gave an IC50 of 0.3 µM. For CNC(=O)c1ccc(N2C(=O)N(c3ccc(C#N)c(C(F)(F)F)c3)[C@@H]3CC(OC)CC[C@H]32)cc1F (mixture of isomers) [Example 85, Trans-4-(3-(4-cyano-3-(trifluoromethyl)phenyl)-5-methoxy-2-oxooctahydro-1H-benzo[d]imidazol-1-yl)-2-fluoro-N-methylbenzamide (±)], the IC50 was 2.62 µM. For N#Cc1ccc(N2C(=O)N(c3ccc(C(=O)O)c(F)c3)[C@@H]3CCCC[C@H]32)cc1C(F)(F)F (racemic) [Example 17, Trans-4-(3-(4-cyano-3-(trifluoromethyl)phenyl)-2-oxooctahydro-1H-benzo[d]im-idazol-1-yl)-2-fluorobenzoic acid (±)], the IC50 was greater than 10 µM. CNC(=O)c1ccc(N2C(=O)N(c3ccc(C#N)c(C(F)(F)F)c3)[C@@H]3CC=CC[C@H]32)cc1F (racemic) [Example 83, Trans-4-(3-(4-cyano-3-(trifluoromethyl)phenyl)-2-oxo-2,3,3a,4,7,7a-hexahydro-1H-benzo[c]imidazol-1-yl)-2-fluoro-N-methylbenzamide (±)] gave an IC50 of 0.148 µM. Compound CNC(=O)c1ccc(N2C(=O)N(c3ccc(C#N)c(C(F)(F)F)c3)[C@@H]3CCC=C[C@H]32)cc1F (racemic) [Example 84, trans-4-(3-(4-cyano-3-(trifluoromethyl)phenyl)-2-oxo-2,3,3a,4,5,7a-hexahydro-1H-benzo[d]imidazol-1-yl)-2-fluoro-N-methylbenzamide (±)] has an IC50 of 0.161 µM. Work on CCOC(=O)c1ccc(N2C(=O)N(c3ccc(C#N)c(C(F)(F)F)c3)[C@@H]3CCCC[C@H]32)s1 (racemic) [Example 8, Trans-ethyl-5-(3-(4-cyano-3-(trifluoromethyl)phenyl)-2-oxooctahydro-1H-benzo[d]imidazol-1-yl)thiophene-2-carboxylate (±)] yielded an IC50 greater than 10 µM. N#Cc1ccc(N2C(=O)N(c3cc(Cl)cc(Cl)c3)[C@H]3CCCC[C@@H]32)cc1C(F)(F)F [Example 44, 4-((3aS,7aS)-3-(3,5-dichlorophenyl)-2-oxooctahydro-1H-benzo[d]imidazol-1-yl)-2-(trifluoromethyl)benzonitrile] showed an IC50 of 0.0964 µM. N#Cc1ccc(N2C(=O)N(c3ccc(Cl)cc3)[C@@H]3CCCC[C@H]32)cc1C(F)(F)F (racemic) [Example 60, Trans-4-(3-(4-chlorophenyl)-2-oxooctahydro-1H-benzo[d]imidazol-1-yl)-2-(trifluoromethyl)benzonitrile (±)] showed an IC50 of 0.397 µM. N#Cc1ccc(N2C(=O)N(c3ccc(C(N)=O)cc3)[C@H]3CCCC[C@@H]32)cc1C(F)(F)F [Example 66, 4-((3aS,7aS)-3-(4-cyano-3-(trifluoromethyl)phenyl)-2-oxooctahydro-1H-benzo[d]imidazol-1-yl)benzamide] gave an IC50 of 0.261 µM.

Same assay, conditions: in the presence of 0.2 nM DHT, XTT readout on Day 10, IC50 curves from 8 concentrations
With CNC(=O)c1ccc(N2C(=O)N(c3ccc(C#N)c(C(F)(F)F)c3)[C@@H]3CCCC[C@H]32)cc1F (relative stereo) [Example 1a, Trans-4-{3-[4-cyano-3-(trifluoromethyl)phenyl]-2-oxo-octahydro-1H-1,3-benzodiazol-1-yl}-2-fluoro-N-Methylbenzamide (+)] the IC50 was greater than 10 µM. N#Cc1ccc(N2C(=O)N(c3ccnc(F)c3)[C@@H]3CCCC[C@H]32)cc1C(F)(F)F (relative stereo) [Example 10a, Trans-4-(3-(2-fluoropyridin-4-yl)-2-oxooctahydro-1H-benzo[d]imidazol-1-yl)-2-(trifluoromethyl)benzonitrile (+)] was tested, and the IC50 was 2.55 µM. Compound CNC(=O)c1ccc(N2C(=O)N(c3ccc(C#N)c(C(F)(F)F)c3)[C@@H]3COCC[C@H]32)cc1F (relative stereo) [Example 71a, Trans-4-{3-[4-Cyano-3-(trifluoromethyl)phenyl]-2-oxo-octahydropyrano[3,4-d]imidazolidin-1-yl}-2-fluoro-N-methylbenzamide (+)] has an IC50 greater than 10 µM. Compound CNC(=O)c1ccc(N2C(=O)N(c3ccc(C#N)c(C(F)(F)F)c3)[C@@H]3COCC[C@H]32)cc1F (relative stereo) [Example 71b, Trans-4-{3-[4-Cyano-3-(trifluoromethyl)phenyl]-2-oxo-octahydropyrano[3,4-d]imidazolidin-1-yl}-2-fluoro-N-methylbenzamide (−)] has an IC50 of 0.379 µM. N#Cc1ccc(N2C(=O)N(c3ccccc3)[C@@H]3CCCC[C@H]32)cc1C(F)(F)F (relative stereo) [Example 5a, Trans-4-(2-oxo-3-phenyloctahydro-1H-benzo[d]imidazol-1-yl)-2-(trifluoromethyl)benzonitrile (+)] gave an IC50 of 1.76 µM. Compound N#Cc1ccc(N2C(=O)N(c3ccc(C#N)c(C(F)(F)F)c3)[C@@H]3CCCC[C@H]32)cc1C(F)(F)F (relative stereo) [Example 2a, Trans-4,4′-(2-oxohexahydro-1H-benzo[d]imidazole-1,3(2H)-diyl)bis(2-(trifluoromethyl)benzonitrile) (−)] has an IC50 of 0.231 µM.
